This experiment relates to Neisseria gonorrhoeae. Nature of the experiment: EC50 determination: plate-based broth growth assay (absorbance at 600 nm) of Neisseria gonorrhoeae. Format: cell-based. To be noted: absorbance 600 nm after 20 hours at 37° C./5% CO2, read-out: IC50 (Inhibitory concentration) against Neisseria gonorrhoeae. As to the method:
Actively growing Neisseria gonorrhoeae on GC agar (based on; Spence et. al. (2008): Curr. Protoc. Microbiol. 8:4A.1.1-4A.1.26) plates are harvested and transferred to GC broth (based on; Spence et al (2008): Curr. Protoc. Microbiol. 8:4A.1.1-4A.1.26) to generate a liquid stock. This culture is allowed to establish and grow to mid-log phase (at 37° C./5% CO2), finally this culture is diluted (˜10^5 cells/ml) to generate a seed inoculum to establish plate-based broth assays. EC50 values were determined by assaying growth (absorbance read at 600 nm, after 20 hours at 37° C./5% CO2) of Neisseria gonorrhoeae across a 10-point dilution series of the test compound. The EC50 value is determined from transformed data to identify the concentration of compound giving a 50% response relative to control samples (no compound).

Where a name gives a salt, the structure may show the parent alone.

Consider `FC(F)(F)c1cc2nc(Nc3nnc[nH]3)oc2cc1Cl` [Example 43, 6-Chloro-N-(4H-1,2,4-triazol-3-yl)-5-(trifluoromethyl)benzo[d]oxazol-2-amine], for which the IC50 is not above 100 nM. As to `COC(=O)c1ccc2oc(Nc3nnc(C)o3)nc2c1` [Example 44, Methyl 2-((5-methyl-1,3,4-oxadiazol-2-yl)amino)benzo[d]oxazole-5-carboxylate], the IC50 is not above 100 nM. The same measure for `Clc1cc(Cl)c2nc(Nc3nnco3)oc2c1` [Example 45, 4,6-Dichloro-N-(1,3,4-oxadiazol-2-yl)benzo[d]oxazol-2-amine]: not above 100 nM; for `Clc1ccc2nc(Nc3ccon3)oc2c1` [Example 46, 6-Chloro-N-(isoxazol-3-yl)benzo[d]oxazol-2-amine]: not above 1000 nM.

Regarding `Fc1cc2nc(Nc3nnco3)oc2cc1Cl` [Example 47, 6-Chloro-5-fluoro-N-(1,3,4-oxadiazol-2-yl)benzo[d]oxazol-2-amine], the IC50 is not above 100 nM. The same measure for `Fc1cc2nc(Nc3nnco3)oc2cc1F` [Example 48, 5,6-diFluoro-N-(1,3,4-oxadiazol-2-yl)benzo[d]oxazol-2-amine]: not above 100 nM. The same measure for `FC(F)(F)c1ccc2nc(Nc3ncc(N4CCNCC4)s3)oc2c1` [Example 49, N-(5-(Piperazin-1-yl)thiazol-2-yl)-6-(trifluoromethyl)benzo[d]oxazol-2-amine hydrochloride]: not above 1000 nM; for `Cc1nnc(Nc2nc3cc(Cl)ccc3o2)o1` [Example 50, 5-Chloro-N-(5-methyl-1,3,4-oxadiazol-2-yl)benzo[d]oxazol-2-amine]: not above 100 nM; for `FC(F)(F)c1cc2oc(Nc3nnc(C4CC4)o3)nc2cn1` [Example 51, N-(5-Cyclopropyl-1,3,4-oxadiazol-2-yl)-6-(trifluoromethyl)oxazolo[4,5-c]pyridin-2-amine]: not above 1000 nM.

Consider `CCOC(=O)c1nnc(Nc2nc3cc(C(F)(F)F)ccc3o2)o1` [Example 52, Ethyl 5-((5-(trifluoromethyl)benzo[d]oxazol-2-yl)amino)-1,3,4-oxadiazole-2-carboxylate], for which the IC50 was not above 1000 nM.

In the case of `Cc1nnc(Nc2nc3cnc(C(F)(F)F)cc3o2)o1` [Example 53, N-(5-Methyl-1,3,4-oxadiazol-2-yl)-6-(trifluoromethyl)oxazolo[4,5-c]pyridin-2-amine], the IC50 was not above 10000 nM. The same measure for `Cc1nnc(Nc2nc3ccc(F)cc3o2)o1` [Example 54, 6-Fluoro-N-(5-methyl-1,3,4-oxadiazol-2-yl)benzo[d]oxazol-2-amine]: not above 1000 nM; for `CCOC(=O)c1nnc(Nc2nc3cc(C(F)(F)F)ccc3n2C)o1` [Example 55, Ethyl 5-((1-methyl-5-(trifluoromethyl)-1H-benzo[d]imidazol-2-yl)amino)-1,3,4-oxadiazole-2-carboxylate]: not above 1000 nM; for `CCOC(=O)c1nnc(Nc2nc3cc(C(F)(F)F)ccc3[nH]2)o1` [Example 56, Ethyl 5-((5-(trifluoromethyl)-1H-benzo[d]imidazol-2-yl)amino)-1,3,4-oxadiazole-2-carboxylate]: not above 1000 nM.

For `Clc1cccc2nc(Nc3nnco3)oc12` [Example 57, 7-Chloro-N-(1,3,4-oxadiazol-2-yl)benzo[d]oxazol-2-amine], the IC50 was not above 1000 nM. `Cc1nnc(Nc2nc3cnccc3o2)o1` [Example 58, N-(5-Methyl-1,3,4-oxadiazol-2-yl)oxazolo[4,5-c]pyridin-2-amine]: the IC50 was not above 10000 nM. The same measure for `FC(F)(F)c1ccc2oc(Nc3nc4ccncc4o3)nc2c1` [Example 59, N-(5-(triFluoromethyl)benzo[d]oxazol-2-yl)oxazolo[5,4-c]pyridin-2-amine]: not above 1000 nM. The same measure for `CCOC(=O)c1nnc(Nc2nc3ccc(Cl)cc3o2)o1` [Example 61, Ethyl 5-((6-chlorobenzo[d]oxazol-2-yl)amino)-1,3,4-oxadiazole-2-carboxylate]: not above 100 nM.

The record behind these values is patent US20190194179A1, “ANTIBIOTIC COMPOUNDS” (DISCUVA LTD., priority 2016, published 2019).
